Experimental data published in the NIST ThermoML archive (doi:10.1021/je8008254).

Experiment: xn = mol fraction of the nth substance listed
Details: 101 kPa, Liquid

CCCCn1cc[n+](C)c1.N#C[S-] [1-butyl-3-methylimidazolium thiocyanate] + CCCO
Details | mass density [kg/m3] | viscosity [mPa·s]
298.15 K, x1 = 0.0267 | 819.06 | 2.26
298.15 K, x1 = 0.0833 | 854.16 | 2.87
298.15 K, x1 = 0.1849 | 903.16 | 4.27
298.15 K, x1 = 0.2538 | 930.41 | 5.34
298.15 K, x1 = 0.3429 | 959.02 | 7.42
298.15 K, x1 = 0.4577 | 988.94 | 10.9
298.15 K, x1 = 0.5868 | 1015.47 | 16.7
298.15 K, x1 = 0.6791 | 1030.55 | 20.5
298.15 K, x1 = 0.805 | 1048.14 | 25.8
298.15 K, x1 = 0.9342 | 1062.97 | 38.6
298.15 K, x1 = 1 | 1069.79 | 51.7
308.15 K, x1 = 0.0267 | 811.18 | 1.8
308.15 K, x1 = 0.0833 | 846.63 | 2.3
308.15 K, x1 = 0.1849 | 895.99 | 3.39
308.15 K, x1 = 0.2538 | 923.49 | 4.21
308.15 K, x1 = 0.3429 | 952.34 | 5.71
308.15 K, x1 = 0.4577 | 982.5 | 8.22
308.15 K, x1 = 0.5868 | 1009.21 | 12.3
308.15 K, x1 = 0.6791 | 1024.39 | 14.8
308.15 K, x1 = 0.805 | 1042.09 | 18.1
308.15 K, x1 = 0.9342 | 1057.02 | 26.2
308.15 K, x1 = 1 | 1063.89 | 34.9
318.15 K, x1 = 0.0267 | 803.18 | 1.46
318.15 K, x1 = 0.0833 | 839 | 1.87
318.15 K, x1 = 0.1849 | 888.81 | 2.75
318.15 K, x1 = 0.2538 | 916.58 | 3.4
318.15 K, x1 = 0.3429 | 945.66 | 4.49
318.15 K, x1 = 0.4577 | 976.07 | 6.43
318.15 K, x1 = 0.5868 | 1003.01 | 9.37
318.15 K, x1 = 0.6791 | 1018.27 | 11.2
318.15 K, x1 = 0.805 | 1036.08 | 13.4
318.15 K, x1 = 0.9342 | 1051.09 | 18.7
318.15 K, x1 = 1 | 1058.02 | 24.2
328.15 K, x1 = 0.0267 | 795 | 1.2
328.15 K, x1 = 0.0833 | 831.26 | 1.55
328.15 K, x1 = 0.1849 | 881.57 | 2.27
328.15 K, x1 = 0.2538 | 909.63 | 2.8
328.15 K, x1 = 0.3429 | 939 | 3.6
328.15 K, x1 = 0.4577 | 969.67 | 5.1
328.15 K, x1 = 0.5868 | 996.84 | 7.3
328.15 K, x1 = 0.6791 | 1012.18 | 8.7
328.15 K, x1 = 0.805 | 1030.11 | 10.4
328.15 K, x1 = 0.9342 | 1045.22 | 14
328.15 K, x1 = 1 | 1052.19 | 16.7
338.15 K, x1 = 0.0267 | 786.6 | 1
338.15 K, x1 = 0.0833 | 823.39 | 1.3
338.15 K, x1 = 0.1849 | 874.27 | 1.9
338.15 K, x1 = 0.2538 | 902.7 | 2.35
338.15 K, x1 = 0.3429 | 932.34 | 3.01
338.15 K, x1 = 0.4577 | 963.3 | 4.18
338.15 K, x1 = 0.5868 | 990.7 | 5.89
338.15 K, x1 = 0.6791 | 1006.14 | 6.97
338.15 K, x1 = 0.805 | 1024.2 | 8.19
338.15 K, x1 = 0.9342 | 1039.4 | 10.9
338.15 K, x1 = 1 | 1046.43 | 12.7
348.15 K, x1 = 0.0267 | 777.98 | 0.848
348.15 K, x1 = 0.0833 | 815.39 | 1.1
348.15 K, x1 = 0.1849 | 866.94 | 1.62
348.15 K, x1 = 0.2538 | 895.73 | 2
348.15 K, x1 = 0.3429 | 925.71 | 2.56
348.15 K, x1 = 0.4577 | 956.97 | 3.46
348.15 K, x1 = 0.5868 | 984.6 | 4.81
348.15 K, x1 = 0.6791 | 1000.13 | 5.64
348.15 K, x1 = 0.805 | 1018.32 | 6.62
348.15 K, x1 = 0.9342 | 1033.61 | 8.69
348.15 K, x1 = 1 | 1040.7 | 9.98
